Test results taken from article PMC4757451 (Biochemistry, 2015).

Columns and labels:
CYP3A4 [1] = target: T1, CYP3A4 (Homo sapiens, UniProt P08684, S18F); experiment: Product formation; details: for Product formation rate after second substrate binding: intermediate with two molecules bound ([20]/[02]); for CBZ Product Rate / PGS Product Rate: mixed substrate global fit
CYP3A4 [2] = target: T1, CYP3A4; experiment: Steady-state NADPH oxidation by CYP3A4 Nanodiscs with CPR; assay type: biochemical

Structure (SMILES) | Product formation rate with only one substrate molecule bound (CYP3A4 [1]; first binding intermediate, fitted parameters, in words) | Product formation rate after third binding event (CYP3A4 [1]; intermediate with three molecules bound ([03]), pure substrate) | Product formation rate after second substrate binding (CYP3A4 [1]; pure substrate) | CBZ Product Rate (CYP3A4 [1]; mixed intermediate [11]) | CBZ product formation rate (CYP3A4 [1]; mixed intermediate [12]) | CBZ Product Rate (CYP3A4 [1]; mixed intermediate [12]) | CBZ product formation rate (CYP3A4 [1]; mixed intermediate [21]) | CBZ Product Rate (CYP3A4 [1]; mixed intermediate [21]) | Maximum rate of NADPH consumption, pure substrate (CYP3A4 [2]; at 30 µM PGS, at 200 µM CBZ) | NADPH consumption rate (CYP3A4 [2]; intermediate [20], pure PGS) | Rate of NADPH consumption at higher PGS concentrations (CYP3A4 [2]; pure PGS, above 30 µM, decreases down to this value) | PGS product formation rate in CBZ/PGS mixture at high concentration (CYP3A4 [1]; CBZ/PGS 12:1 mixture, 60 µM and higher PGS) | Maximum PGS product formation rate in CBZ/PGS mixture (CYP3A4 [1]; CBZ/PGS 12:1 mixture, reached at 18–20 µM PGS) | Factor by which PGS hydroxylation in [11] is slower than in [20] (CYP3A4 [1]; [11] versus [20]) | Hill coefficient nH (CYP3A4 [1]; fitting with the Hill equation, pure PGS) | Rate of PGS hydroxylation (CYP3A4 [1]; mixed intermediate [11]) | PGS Product Rate (CYP3A4 [1]; mixed intermediate [11]) | PGS Product Rate (CYP3A4 [1]; mixed intermediate [12]) | PGS Product Rate (CYP3A4 [1]; mixed intermediate [21])
NC(=O)N1c2ccccc2C=Cc2ccccc21 [CBZ, carbamazepine] | negligible | 3 min⁻¹ | 1.7 min⁻¹ | 0 (0.01) nmol/nmol/min | 4.5 min⁻¹ | 4.5 (2.0 – 6.0) nmol/nmol/min | 11 min⁻¹ | 11 (9.8 – 12.2) nmol/nmol/min | – | – | – | – | – | – | – | – | – | – | –
CC(=O)[C@H]1CC[C@H]2[C@@H]3CCC4=CC(=O)CC[C@]4(C)[C@H]3CC[C@]12C [PGS, progesterone] | – | – | 14.7 min⁻¹ | – | – | – | – | – | 240 min⁻¹ | 388 min⁻¹ | 160 min⁻¹ | 4 min⁻¹ | 5 min⁻¹ | 4 | 1.7 | 4 min⁻¹ | 4 (3.7 – 4.2) nmol/nmol/min | 0 (0.01) nmol/nmol/min | 0 (0.02) nmol/nmol/min
